Assay results as given in US20220323406A1, “METHODS AND COMPOSITIONS FOR DIFFERENTIATING STEM CELLS” (Massachusetts Institute of Technology, priority 2019, published 2022).

Key:
Details in all cases: primary screen
[1] = tested on: ENR+CD organoids (ISC to Paneth cell differentiation); assay: Primary screen: CCh-stimulated lysozyme secretion LYZ.S, 2.5-D 384-well ENR+CD organoid differentiation; type: cell-based, mouse
Excerpt: (§1) High-throughput screening.

ENR+CD organoids = assay: Primary screen: ATP (CellTiter-Glo 3D, CTG) cell number/viability, 2.5-D 384-well ENR+CD organoids;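 also: compounds given at plating and again on day 3 over a 6-day differentiation from ENR+CV stem-cell-enriched precursors, ATP measured on day 6, plate median as control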
[2] = tested on: ENR+CD organoids (ISC to Paneth cell differentiation); assay: Primary screen: basal (non-stimulated) lysozyme secretion LYZ.NS, 2.5-D 384-well ENR+CD organoid differentiation; type: cell-based, mouse
Excerpt: as §1

SMILES | Dose.FC.LYZ.S ([1]; dose 0.08 uM) [log2 fold change] | Dose.FC.LYZ.S ([1]; dose 0.40 uM) [log2 fold change] | Dose.FC.LYZ.S ([1]; dose 2.00 uM) [log2 fold change] | Dose.FC.LYZ.S ([1]; dose 10.00 uM) [log2 fold change] | Dose.FC.CTG (ENR+CD organoids; dose 0.08 uM) [log2 fold change] | Z.CTG (standard z score) (ENR+CD organoids; dose 0.08 uM) | Dose.FC.CTG (ENR+CD organoids; dose 0.40 uM) [log2 fold change] | Z.CTG (standard z score) (ENR+CD organoids; dose 0.40 uM) | Dose.FC.CTG (ENR+CD organoids; dose 2.00 uM) [log2 fold change] | Z.CTG (standard z score) (ENR+CD organoids; dose 2.00 uM) | Dose.FC.CTG (ENR+CD organoids; dose 10.00 uM) [log2 fold change] | Z.CTG (standard z score) (ENR+CD organoids; dose 10.00 uM) | Dose.FC.LYZ.NS ([2]; dose 0.08 uM) [log2 fold change] | Z.LYZ.NS (standard z score) ([2]; dose 0.08 uM) | Dose.FC.LYZ.NS ([2]; dose 0.40 uM) [log2 fold change] | Z.LYZ.NS (standard z score) ([2]; dose 0.40 uM) | Dose.FC.LYZ.NS ([2]; dose 2.00 uM) [log2 fold change] | Z.LYZ.NS (standard z score) ([2]; dose 2.00 uM) | Dose.FC.LYZ.NS ([2]; dose 10.00 uM) [log2 fold change] | Z.LYZ.NS (standard z score) ([2]; dose 10.00 uM)
COc1cc(N2CCC(N)CC2)ccc1Nc1ncc(Cl)c(-c2c[nH]c3ccccc23)n1 [AZD3463] | −0.199 | −0.293 | −0.315 | −0.328 | −0.275 | −0.657 | −0.341 | −0.814 | −0.772 | −1.843 | −0.960 | −2.293 | −0.147 | −1.279 | −0.190 | −1.652 | −0.232 | −2.021 | −0.209 | −1.820
Cc1cc([C@@H](C)Nc2ccccc2C(=O)O)c2nc(N3CCOCC3)cc(=O)n2c1 [AZD6482] | 0.182 | 0.156 | −0.114 | −0.253 | 0.240 | 0.572 | 0.223 | 0.533 | −0.509 | −1.215 | −1.203 | −2.874 | 0.108 | 0.944 | 0.076 | 0.660 | −0.130 | −1.129 | −0.248 | −2.160
CN(C)C(=O)c1ccc(S(=O)(=O)c2ccc(NC(=O)[C@@](C)(O)C(F)(F)F)c(Cl)c2)cc1 [AZD7545] | 0.111 | −0.017 | −0.148 | −0.104 | −0.334 | −0.798 | −0.158 | −0.378 | −0.255 | −0.608 | −0.350 | −0.836 | 0.087 | 0.758 | −0.028 | −0.245 | −0.018 | −0.155 | −0.051 | −0.441
NC(=O)Nc1cc(-c2cccc(F)c2)sc1C(=O)N[C@H]1CCCNC1 [AZD7762] | 0.019 | −0.251 | −0.342 | −0.369 | 0.054 | 0.129 | −0.384 | −0.917 | −0.804 | −1.920 | −1.361 | −3.251 | 0.010 | 0.084 | −0.159 | −1.385 | −0.211 | −1.835 | −0.220 | −1.917
NC(=O)c1ncn([C@@H]2O[C@H](CO)[C@@H](O)[C@H]2O)c1N [Acadesine] | 0.004 | −0.012 | 0.053 | −0.102 | 0.094 | – | 0.173 | – | −0.005 | – | 0.076 | – | 0.023 | 0.198 | −0.016 | −0.137 | 0.016 | 0.140 | −0.070 | −0.607
COc1ccc2cccc(CCNC(C)=O)c2c1 [Agomelatine] | 0.090 | 0.132 | −0.037 | 0.008 | 0.106 | – | 0.081 | – | −0.198 | – | 0.024 | – | 0.026 | 0.227 | 0.080 | 0.695 | 0.069 | 0.597 | −0.033 | −0.285
Oc1ncnc2[nH]ncc12 [Allopurinol] | 0.026 | −0.086 | −0.064 | −0.119 | 0.212 | – | −0.098 | – | −0.162 | – | −0.454 | – | 0.019 | 0.168 | −0.036 | −0.314 | −0.004 | −0.036 | −0.051 | −0.442
CCOC(=O)[C@H]1O[C@@H]1C(=O)N[C@@H](CC(C)C)C(=O)NCCC(C)C [Aloxistatin] | 0.025 | −0.016 | −0.091 | −0.181 | −0.006 | – | −0.006 | – | −0.129 | – | −0.214 | – | 0.020 | 0.171 | −0.029 | −0.250 | −0.037 | −0.324 | −0.142 | −1.236
CCOC(=O)C1=C(COCCN)NC(C)=C(C(=O)OC)C1c1ccccc1Cl (stereo not shown) [Amlodipine] | −0.042 | −0.015 | −0.122 | −0.155 | −0.351 | – | −0.363 | – | −0.372 | – | −0.421 | – | 0.026 | 0.228 | 0.024 | 0.210 | −0.065 | −0.568 | −0.135 | −1.172
COc1cc(F)c(C(C)C)cc1-c1ccc(C(F)(F)F)cc1CN1C(=O)O[C@H](c2cc(C(F)(F)F)cc(C(F)(F)F)c2)[C@@H]1C [Anacetrapib (MK-0859)] | 0.051 | −0.002 | −0.046 | −0.036 | −0.090 | −0.214 | 0.035 | 0.084 | −0.094 | −0.225 | 0.031 | 0.075 | 0.013 | 0.112 | 0.007 | 0.060 | −0.015 | −0.129 | −0.036 | −0.314
CC(C)(C#N)c1cc(Cn2cncn2)cc(C(C)(C)C#N)c1 [Anastrozole] | 0.045 | 0.100 | −0.008 | −0.081 | −0.117 | – | 0.024 | – | −0.058 | – | −0.499 | – | 0.035 | 0.305 | 0.106 | 0.924 | −0.003 | −0.026 | −0.067 | −0.580
